Data: ChEMBL document CHEMBL1143631, “On the binding of indeno[1,2-c]isoquinolines in the DNA-topoisomerase I cleavage complex” (J Med Chem, 2005)
Calls of active or inactive are those of the source. No cut-off for these calls is given here.

Biological target: T1, DNA topoisomerase 1 (Homo sapiens) (UniProt P11387)
T1 sequence (whole entry): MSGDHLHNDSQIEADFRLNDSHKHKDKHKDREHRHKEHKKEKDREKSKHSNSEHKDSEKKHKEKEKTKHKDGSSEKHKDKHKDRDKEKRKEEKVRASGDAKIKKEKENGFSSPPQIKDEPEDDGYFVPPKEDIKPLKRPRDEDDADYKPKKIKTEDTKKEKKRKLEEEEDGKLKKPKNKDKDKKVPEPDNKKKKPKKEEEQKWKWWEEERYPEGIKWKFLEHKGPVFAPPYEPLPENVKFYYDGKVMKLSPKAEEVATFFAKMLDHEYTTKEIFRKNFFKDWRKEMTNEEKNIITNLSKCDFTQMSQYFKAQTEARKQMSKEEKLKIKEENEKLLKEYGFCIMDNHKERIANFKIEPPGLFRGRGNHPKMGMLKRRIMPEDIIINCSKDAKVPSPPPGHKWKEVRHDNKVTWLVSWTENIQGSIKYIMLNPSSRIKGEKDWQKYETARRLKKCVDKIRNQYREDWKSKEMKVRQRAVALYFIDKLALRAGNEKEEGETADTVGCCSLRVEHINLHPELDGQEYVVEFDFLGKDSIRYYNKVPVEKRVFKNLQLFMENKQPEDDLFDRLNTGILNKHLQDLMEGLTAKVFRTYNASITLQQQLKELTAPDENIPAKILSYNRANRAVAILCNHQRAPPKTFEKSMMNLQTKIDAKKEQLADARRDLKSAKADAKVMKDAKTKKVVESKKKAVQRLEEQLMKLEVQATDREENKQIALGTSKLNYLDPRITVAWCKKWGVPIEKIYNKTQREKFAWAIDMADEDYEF
Experiment: Inhibitory activity against DNA-Topoisomerase I

Nc1ccc2c3c(n(CCCCl)c(=O)c2c1)-c1cc2c(cc1C3=O)OCO2
inhibition: inactive

O=C1c2cc3c(cc2-c2c1c1ccccc1c(=O)n2CCCCl)OCO3
inhibition: inactive
